Data set [1] is described as follows: Equilibration between mitomycin-type and albomitomycin-type substance in aqueous solution. It counts as physicochemical. Conditions: aqueous solution (5 mg/ml), 25° C., 24 hours. How it is done:
In the case wherein the compound of Example 1 described hereinafter was equilibrated by allowing to stand in an aqueous solution (5 mg/ml) at a temperature of 25° C. for 24 hours, the molar ratio of the albomitomycin-type substance was 8.5%.

The test system of another data set is Escherichia coli ATCC 26. The data set is described as follows: Minimum inhibitory concentration, agar dilution method, EC. It counts as cell-based. The settings on record: Escherichia coli, ATCC26, pH 7, read-out: minimum inhibitory concentration, EC. From the text:
(§1) Certain Compounds I were selected. Table 3 indicates their anti-bacterial activities in terms of their minimum inhibitory concentration (μg/ml), determined by the agar dilution method effected at a pH of 7.0. In this table, the microorganisms used are abbreviated as follows:
EC: Escherichia coli ATCC 26

The test system of data set [2] is Klebsiella pneumoniae ATCC 10031. The data set is described as follows: microbe, parasite or virus in culture. The class given is cell-based. Conditions: ATCC10031, pH 7, read-out: minimum inhibitory concentration, KP. From the text: Certain Compounds I were selected. […] In this table, the microorganisms used are abbreviated as follows:
KP: Klebsiella pneumoniae ATCC 10031

Data set [3] has as its system Staphylococcus aureus ATCC 6583P. Kind of data set: Minimum inhibitory concentration, agar dilution method, SA. It counts as cell-based. The settings on record: Staphylococcus aureus, ATCC6583P, pH 7, read-out: minimum inhibitory concentration, SA.
Description: as §1
SA: Staphylococcus aureus ATCC 6583P

Another data set can be described thus: in vivo. Conditions: mouse, in vivo, ip; read-out: (WBC4000/ED50)* = (WBC4000/ED50)/[(WBC4000/ED50) of MMC1]. The class given is in vivo, mice (ddy strain). In short, it runs like this: (§2)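 Male ddy mice (20±2 g, 5 per group) implanted subcutaneously with 5×10^6 Sarcoma 180 cells and given compound intra-abdominally 24 hours later. Leucocytes counted in suborbital blood 4 days after dosing. WBC4000 is the dose giving […], read from a plot of count vs log dose.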

In the next data set the test system is peripheral leucocytes. The data set is described as follows: in vivo. Conditions: in comparison with mitomycin C. The class given is in vivo, mice (ddy strain). In short, it runs like this:
as §2

A short description of the next data set: Acute toxicity. The class given is in vivo, mice (ddy). The settings on record: mouse, in vivo, ip. Here is the method: (§3) Certain compounds were selected from Compounds I. The following Table 4 indicates anti-tumour activity against Sarcoma 180 solid tumour (ED50), acute toxicity (LD50) and effects on the peripheral leucocytes (WBC4000) of each compound.
(§4) Each animal of the test group consisting of 5 ddy mice was once administered (i.p.) with a test compound. […] The LD50 was determined by Behren Korber's method.

For the next data set, the system named is ddy mice. Kind of data set: Acute toxicity. The class given is in vivo. The settings on record: in comparison with mitomycin C. Here is the method:
as §3, §4

A further data set relates to Sarcoma 180 solid tumour. The data set is described as follows: animal or person. It counts as in vivo, mice (ddy strain). Conditions: Mus musculus, Sarcoma-180, ip, 168 h, read-out: ED50 ip.
In data set [4] the test system is Streptococcus faecalis ATCC 10541. Kind of data set: Minimum inhibitory concentration, agar dilution method, SF. The class given is cell-based. Conditions: Enterococcus faecalis, ATCC10541, pH 7, read-out: minimum inhibitory concentration, SF.
Description: as §1
SF: Streptococcus faecalis ATCC 10541

The nature of another data set: Solubility in water. The class given is physicochemical.
The subject of the next data set is P388 Leukemia. Kind of data set: Effect upon Leukemia P 388. The class given is in vivo, mouse (CDF1). The settings on record: dose 25 mg/kg, single i.p., 33 days. How it is done:
(5) Effect upon Leukemia P 388:
Ascites cells were collected from P388 Leukemia-carrying mouse (DBA/2) 7 days after the implantation. The number of the cells of P388 Leukemia in the sample was counted. A physiological solution of sodium chloride was sterilized and used to prepare a cell suspension containing 5×10^6 tumour cells per ml. On each occasion, 0.2 ml of the suspension containing 1×10^6 cells was implanted into the abdominal cavity of each mouse (CDF1; body weight 20~25 g). 24 hours after implantation, the test compound was once given to each mouse of a test group consisting of 6 mice by abdominal injection.
The activity of the test samples was determined by the ratio of the average survival days of the treated animals to the average survival days of untreated animals viz. ILS % (Increased Life Span).

Data set [5] deals with Proteus vulgaris ATCC 6897. Kind of data set: Minimum inhibitory concentration, agar dilution method, PV. The class given is cell-based. The settings on record: Proteus vulgaris, ATCC6897, pH 7, read-out: minimum inhibitory concentration, PV.
Description: as §1
PV: Proteus vulgaris ATCC 6897

Results on one molecule are retold here after patent US5103018A, “Mitomycin derivatives” (Kyowa Hakko Kogyo Kabushiki Kaisha, priority 1986, dated 1992).

In brackets after ≈: the same amount, converted by molar mass.

Turning to `CO[C@@]12[C@H](COC(N)=O)C3=C(C(=O)C(C)=C(NCCSSCCNC(=O)CC[C@H](N)C(=O)O)C3=O)N1C[C@@H]1N[C@@H]12` [Compound 1, 7-N-[2-[[2-(N^5 -L-glutamino)ethyl]dithio]ethyl]mitomycin C], in data set [1], the “molar ratio of the albomitomycin-type substance at equilibrium” value worked out at 8.5%. Also, the MIC in the data set on Escherichia coli ATCC 26 was greater than 50 µg/mL; in data set [2] it was 0.4 µg/mL (≈ 0.668 µM); in data set [3], 0.8 µg/mL (≈ 1.34 µM); in data set [4], 1.6 µg/mL (≈ 2.67 µM); in data set [5], 0.8 µg/mL (≈ 1.34 µM). For the same molecule, the selectivity ratio in the data set “in vivo” came out at 4.12; in “Acute toxicity” (read-out: (C.I.)* = (LD50/ED50)/[(LD50/ED50) of MMC1]), 2.58. In the data set on peripheral leucocytes, the “WBC4000/ED50 (in words)” value is listed as “very high”. Moreover, the LD50 at 336 h in the data set “Acute toxicity” (ddy mice, single i.p., 14 days, Behren Korber's method) worked out at 22.5 mg/kg. The “C.I. (LD50/ED50) (in words)” value in the data set with ddy mice is given as “very high”. The ED50 in the data set on Sarcoma 180 solid tumour was 2.7 mg/kg. In addition, in the data set “Solubility in water”, the “water-solubility (in words)” value is “good”. In “Solubility in water” (water), this molecule came in with a solubility greater than 20 mg/mL. Besides, the “ILS* (ratio of ILS % to that of mitomycin C)” value in the data set with P388 Leukemia was greater than 2.30.
